This data set concerns the target T1, CYP1A2 (Homo sapiens, UniProt P05177).
T1 sequence (P05177 whole entry): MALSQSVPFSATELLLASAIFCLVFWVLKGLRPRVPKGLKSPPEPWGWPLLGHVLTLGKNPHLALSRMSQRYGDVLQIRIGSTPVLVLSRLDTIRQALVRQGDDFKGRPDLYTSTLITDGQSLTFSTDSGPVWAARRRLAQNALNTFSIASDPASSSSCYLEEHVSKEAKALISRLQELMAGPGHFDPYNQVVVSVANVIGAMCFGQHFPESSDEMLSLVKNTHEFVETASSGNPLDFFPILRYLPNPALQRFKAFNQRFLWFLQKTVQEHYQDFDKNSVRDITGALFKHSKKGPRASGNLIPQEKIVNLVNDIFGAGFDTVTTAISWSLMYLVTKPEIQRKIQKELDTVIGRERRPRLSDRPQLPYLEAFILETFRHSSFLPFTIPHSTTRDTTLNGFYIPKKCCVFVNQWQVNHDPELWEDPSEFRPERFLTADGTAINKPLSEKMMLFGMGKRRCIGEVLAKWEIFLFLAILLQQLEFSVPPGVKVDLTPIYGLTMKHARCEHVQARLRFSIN
As to the kind of experiment: Inhibition of CYP1A2 in human liver microsomes using phenacetin at 10 uM in presence of NADPH incubated for 10 mins. The data set is classed as ADME, Microsome. The note with it: probe phenacetin. Background: Microsomes from liver hold many membrane-bound enzymes, among them those of drug oxidation.

On to `CC(C)(Oc1cccc(N2CCC[C@@H](C(=O)N(Cc3ccc(-c4cnc5[nH]ccc5c4)cc3)C3CC3)C2)c1)C(=O)N1CCNCC1.Cl`, for which the inhibition – broadly, the relative decrease from the control value, in per cent – at 10 min, 10 µM was 31%.

Source of the values: ChEMBL document CHEMBL5154919, “New ZW4864 Derivatives as Small-Molecule Inhibitors for the β-Catenin/BCL9 Protein-Protein Interaction” (ACS Med Chem Lett, 2022).
